Measurements published in patent publication US8629167B2, “Selective androgen receptor modulators” (Radius Health, Inc., priority 2008, dated 2014).
Where two headings read alike, the source gives them in different places.

What was measured:
androgen receptor = androgen receptor (Rattus norvegicus (Rat), UniProt P15207); assay: androgen receptor binding assay (fluorescence polarization, AR-Fluormone complex)
Experimental: The assay was performed as specified by the manufacturer (Invitrogen, Madison, Wis.). Briefly, 1 μl of 10 mM compound was added to 500 μl of AR screening buffer in a 1.5 ml eppendorf tube to make a 2×10^−5 M stock. 10-fold serial dilutions of the test compounds were prepared ranging in concentration from 10^−5M to 10^−12 M. Each dilution was added in triplicate to a black 384-microtiter plate. The test compounds will be diluted 2-fold in the final reaction. 2×AR-Fluormone™ complex was prepared with 2 nM Flourmone AL Green™ and 30 nM AR. 25 μl of 2× complex was aliquoted to each reaction well, such that the final reaction volume was 50 μl per well. Plate was sealed with a foil cover and incubated in the dark at room temperature for 4 h. Polarization values for each well were measured. The polarization values were plotted against the concentration of the test compound. […] As a control, a competition curve for R1881 (methyltrienolone) was performed for each assay. Curve Fitting was performed using GraphPad Prism® software from GraphPad™ Software Inc. Binding data are reported as a single determination if the experiment was run once only and as the average of experiments if the binding experiment was performed two or more times with that compound.
Were multiple data points have been taken, the value reported is the average of the multiple determinations.

[1] = tested on: young, orchidectomized rats; assay: Rat Herschberger assay (in vivo androgen and anabolic activity); conditions: organ weight, 10 mg/kg (po), treated for 4 days
Source text: The following is a typical procedure of the in vivo evaluation of the selective androgens of this invention. In particular, this assay looks primarily at the ability of the selective androgens of this invention to increase muscle size in an immature, castrated rat. In addition, androgenic effects are looked at primarily by weighing the prostate and seminal vesicles. Selective compounds will show a greater increase in the levator ani relative to the prostate and seminal vesicles when compared to testosterone treated, castrated animals or to intact animals that have not been treated. Immature Sprague Dawley male rats were obtained Charles River Laboratories (Stoneridge, N.Y.). All animals were maintained in a temperature and humidity controlled room with a 12 hr light: 12 hr dark cycle, with ad lib access to food (TD 291615, Teklad, Madison, Wis.) and water. Rats were anesthetized and orchidectomized (GDX) or sham surgery (SHAM) was performed. After a 7-day recovery period, the animals were randomized according to weight and assigned to treatment groups (n=5), SHAM, OVX+vehicle, OVX+Cpd treated. Testosterone propionate (TP 1 mg/kg in 5% DMSO/95% corn oil) was administered by once daily subcutaneous injections, while the compounds of the invention are dosed in vehicle (typically 20% cyclodextrin or 0.5% carboxymethylcellulose) was administered by once daily oral gavage. The rats were then dosed once daily for 4 days. All animals were euthanized via carbon dioxide inhalation 24 hs after the last dose. The prostate, seminal vesicle and levator ani and bulba cavernous (LABC) tissues were removed, weighed and recorded. Body weights were recorded for each animal at baseline and at sacrifice.
Prostate, seminal vesicle and levator ani bulbus cavernosus (LABC) are all represented as % relative to sham. After sacrifice, organ weights of young, orchidectomized rats treated with compound for 4 days are compared to sham operated animals.

[2] = single determination or average of multiple determinations, read-out: Binding IC50 (nM), Compound AR-Binding Affinity

androgen receptor, sequence (P15207 whole entry, looked up): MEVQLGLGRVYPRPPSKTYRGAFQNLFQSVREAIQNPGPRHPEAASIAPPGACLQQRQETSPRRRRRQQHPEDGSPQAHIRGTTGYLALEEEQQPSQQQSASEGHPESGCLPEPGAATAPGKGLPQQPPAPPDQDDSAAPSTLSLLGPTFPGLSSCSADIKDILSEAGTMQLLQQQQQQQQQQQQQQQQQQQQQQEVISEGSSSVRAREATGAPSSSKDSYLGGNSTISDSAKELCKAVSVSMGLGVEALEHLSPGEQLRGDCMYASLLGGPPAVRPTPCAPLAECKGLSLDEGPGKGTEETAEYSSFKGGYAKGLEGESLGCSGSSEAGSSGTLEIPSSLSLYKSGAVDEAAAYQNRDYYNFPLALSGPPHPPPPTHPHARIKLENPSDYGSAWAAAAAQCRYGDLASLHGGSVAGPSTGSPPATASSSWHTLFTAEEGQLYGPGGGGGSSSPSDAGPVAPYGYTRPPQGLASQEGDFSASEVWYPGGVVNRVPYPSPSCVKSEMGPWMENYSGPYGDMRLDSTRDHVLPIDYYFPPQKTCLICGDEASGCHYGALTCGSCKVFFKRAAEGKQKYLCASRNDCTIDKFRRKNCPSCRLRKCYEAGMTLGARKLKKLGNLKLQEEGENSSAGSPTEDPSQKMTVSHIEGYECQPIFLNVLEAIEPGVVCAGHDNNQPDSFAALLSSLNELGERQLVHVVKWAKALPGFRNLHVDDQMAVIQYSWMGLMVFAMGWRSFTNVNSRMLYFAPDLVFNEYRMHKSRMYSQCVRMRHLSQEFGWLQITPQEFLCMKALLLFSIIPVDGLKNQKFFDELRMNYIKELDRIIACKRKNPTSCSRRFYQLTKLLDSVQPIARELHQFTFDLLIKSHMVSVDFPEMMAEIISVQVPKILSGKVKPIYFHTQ

| Compound | IC50 (androgen receptor) | also measured |
| --- | --- | --- |
| CCC(=O)O[C@@H](C)[C@@H](Nc1ccc(C#N)c(Cl)c1C)c1nnc(-c2ccc(C#N)cc2)o1 [Example 86, (1R,2S)-1-(3-Chloro-4-cyano-2-methylphenylamino)-1-(5-(4-cyanophenyl)-1,3,4-oxadiazol-2-yl)propan-2-yl propionate] | 120 nM |  |
| Cc1c(N[C@@H](c2nnc(-c3ccccc3)o2)[C@@H](C)O)ccc(C#N)c1Cl [Example 3, 2-chloro-4-((1R,2R)-2-hydroxy-1-(5-phenyl-1,3,4-oxadiazol-2-yl)propylamino)-3-methylbenzonitrile] |  | LABC (levator ani bulbus cavernosus), % relative to sham [1]: 99%; Prostate, % relative to sham [1]: 43%; Seminal vesicle, % relative to sham [1]: 37% |
| Cc1c(N[C@@H](c2nnc(-c3ccc(NC(=O)c4ccccc4)cc3)o2)[C@H](C)O)ccc(C#N)c1Cl [Example 77, N-(4-(5-((1R,2S)-1-(3-Chloro-4-cyano-2-methylphenylamino)-2-hydroxypropyl)-1,3,4-oxadiazol-2-yl)phenyl)benzamide] |  | IC50 (androgen receptor; [2]): 1000 nM |
| Cc1c(N[C@H](c2ccc(-c3nnco3)cc2)[C@@H](C)OS(N)(=O)=O)ccc(C#N)c1Cl [Example 94, (1R,2R)-1-(3-Chloro-4-cyano-2-methylphenylamino)-1-(4-(1,3,4-oxadiazol-2-yl)phenyl sulfamate)propan-2-yl sulfamate] |  | IC50 (androgen receptor; [2]): > 1000 nM |
| CCCC(=O)O[C@@H](C)[C@@H](Nc1ccc(C#N)c(Cl)c1C)c1nnc(-c2ccc(C#N)cc2)o1 [Example 85, (1R,2S)-1-(3-Chloro-4-cyano-2-methylphenylamino)-1-(5-(4-cyanophenyl)-1,3,4-oxadiazol-2-yl)propan-2-yl butyrate] | 10 nM |  |
| CC(=O)O[C@@H](C)[C@@H](Nc1ccc(C#N)c(Cl)c1C)c1nnc(-c2ccccc2)o1 [Example 76, (1R,2S)-1-(3-chloro-4-cyano-2-methylphenylamino)-1-(5-phenyl-1,3,4-oxadiazol-2-yl)propan-2-yl acetate] | 15 nM |  |
| Cc1c(N[C@@H](c2nnc(-c3ccc4[nH]ccc4c3)o2)[C@H](C)O)ccc(C#N)c1Cl [Example 98, 4-((1R,2S)-1-(5-(1H-Indol-5-yl)-1,3,4-oxadiazol-2-yl)-2-hydroxypropylamino)-2-chloro-3-methylbenzonitrile] | 80 nM |  |
| [2H]c1ccc(-c2nnc([C@H](Nc3ccc(C#N)c(Cl)c3C)[C@H](C)O)o2)cc1 [Example 97, 2-Chloro-4-((1R,2S)-1-(5-(4-deuterophenyl)-1,3,4-oxadiazol-2-yl)-2-hydroxypropylamino)-3-methylbenzonitrile] | 18 nM |  |
| CCC(=O)O[C@@H](C)[C@@H](Nc1ccc(C#N)c(Cl)c1C)c1nnc(-c2ccccc2)o1 [Example 84, (1R,2S)-1-(3-Chloro-4-cyano-2-methylphenylamino)-1-(5-phenyl-1,3,4-oxadiazol-2-yl)propan-2-yl propionate] | 25 nM |  |
| C[C@H](O)[C@@H](Nc1ccc(C#N)c(Cl)c1)c1nnc(-c2ccc(S(C)(=O)=O)cc2)o1 [Example 48, 2-Chloro-4-((1R,2S)-2-hydroxy-1-(5-(4-(methylsulfonyl)phenyl)-1,3,4-oxadiazol-2-yl)propylamino)benzonitrile] |  | IC50 (androgen receptor; [2]): > 1000 nM |
| C[C@H](O)[C@@H](Nc1ccc(C#N)c2scc(Cl)c12)c1nnc(-c2ccc(C#N)cc2)o1 [Example 95, 3-Chloro-4-((1R,2S)-1-(5-(4-cyanophenyl)-1,3,4-oxadiazol-2-yl)-2-hydroxypropylamino)benzo[b]thiophene-7-carbonitrile] | 1 nM |  |
| Cc1c(N[C@@H](c2nnc(-c3ccc(OS(N)(=O)=O)cc3)o2)[C@H](C)O)ccc(C#N)c1Cl [Example 93, 4-(5-((1R,2S)-1-(3-Chloro-4-cyano-2-methylphenylamino)-2-hydroxypropyl)-1,3,4-oxadiazol-2-yl)phenyl sulfamate] | 25 nM |  |
| CC(=O)Oc1ccc(-c2nnc([C@H](Nc3ccc(C#N)c(Cl)c3C)[C@H](C)OC(C)=O)o2)cc1 [Example 73, 4-(5-((1R,2S)-2-Acetoxy-1-(3-chloro-4-cyano-2-methylphenylamino)propyl)-1,3,4-oxadiazol-2-yl)phenyl acetate] | 30 nM |  |
| Cc1c(N[C@@H](c2nnc(-c3ccccc3)o2)[C@H](C)O)ccc(C#N)c1Cl [Example 1, 2-chloro-4-((1R,2S)-2-hydroxy-1-(5-phenyl-1,3,4-oxadiazol-2-yl)propylamino)-3-methylbenzonitrile] |  | LABC (levator ani bulbus cavernosus), % relative to sham [1]: 85%; Prostate, % relative to sham [1]: 46%; Seminal vesicle, % relative to sham [1]: 69% |
| Cc1c(N[C@@H](c2nnc(-c3ccccc3)o2)[C@H](C)OS(N)(=O)=O)ccc(C#N)c1Cl [Example 90, (1R,2S)-1-(3-Chloro-4-cyano-2-methylphenylamino)-1-(5-phenyl-1,3,4-oxadiazol-2-yl)propan-2-yl sulfamate] | 20 nM |  |
| CC(=O)O[C@@H](C)[C@@H](Nc1ccc(C#N)c(Cl)c1C)c1nnc(-c2ccc(C#N)cc2)o1 [Example 88, (1R,2S)-1-(3-Chloro-4-cyano-2-methylphenylamino)-1-(5-(4-cyanophenyl)-1,3,4-oxadiazol-2-yl)propan-2-yl acetate] | 110 nM |  |
